The source of these data is publication PMC4482483, “Cationic Cell-Penetrating Peptides Are Potent Furin Inhibitors” (PLoS ONE, 2015).

Where two headings read alike, the source gives them in different places.

For data set [1], the target named is T1, soluble human furin (Homo sapiens, UniProt P09958).
T1 construct: Soluble human furin was purified from the conditioned medium; made in house; host or cells: CHO DG44 cells (stably transfected, methotrexate-amplified); purified from conditioned medium
The data set can be described thus: furin enzyme assay with fluorogenic substrate pERTKR-mca. In kind it is biochemical. Particulars: for furin inhibition: peptide at 100 μM, 100 μM pERTKR-mca, Fig 1. Here is the method:
Soluble human furin was purified from the conditioned medium of stably-transfected, methotrexate-amplified CHO DG44 cells, as previously described. […] The HIV-1 TAT47-57 peptide was purchased from Creative Peptides (Shirley, NY). The Chariot reagent was purchased from Active Motif (Carlsbad, CA). […] The fourth peptide (W4-[R5]; N-acetyl-WWWW-[KRRRRR]) is N-terminally acetylated.
The furin assay was performed in 96-well polypropylene microtiter plates in a final volume of 50 μl, containing 100 mM HEPES, pH 7.0, 5 mM CaCl2, 0.1% Brij 35, 0.1% NaN3, and 0.1 mg/ml BSA. The substrate p-Glu-Arg-Thr-Lys-Arg-4-methylcoumaryl-7-amide (pERTKR-mca; Peptide Institute, Lexington, KY) was used at a final concentration of 100 μM. Furin was used at a final concentration of 20 nM. Reaction mixtures were incubated at 37°C and fluorescence measurements (380 nm excitation, 460 nm emission) were taken under kinetic conditions every minute for 60 min in a SpectraMax M2 microplate reader. […] After a 30-min preincubation at room temperature, 100 μM of pERTKR-methylaminocoumarin (mca) was added, and residual enzyme activities were monitored by measuring mca fluorescence intensity. Data were analyzed using Prism 5 as described previously. Due to cost considerations, Ki determinations were not performed for the HIV TAT peptide or for the Chariot reagent.
Soluble human furin, pre-incubated for 20 min at room temperature in the presence of (a) HIV-1 TAT (47–57) or (b) Chariot peptide, was tested at the specified concentrations. Furin activity was assessed by measuring the release of the fluorescent mca product from the fluorogenic substrate, pERTKR-mca.

Data set [2] concerns the target T1, soluble human furin. Particulars: cited from earlier work; for Ki: furin.
Data set [3] has as its system HT1080 fibrosarcoma cells. The data set can be described thus: Oris cell migration assay. In kind it is cell-based. Particulars: 10 μM peptide. Here is the method: HT1080 fibrosarcoma cells (ATCC# CCL-121) were cultured to 80% confluence in growth medium (MEM (Earle’s salts + L-glutamine) 10% FBS, 1:100 non-essential amino acids (NEAA), 1 mM sodium pyruvate, 500 U/ml penicillin-streptomycin, and 1% gentamycin; Life Technologies). Cells were plated in an Oris Cell Migration Assay (Platypus Technologies) 96-well plate at 10^5 cells per well, following the manufacturer’s protocol. The next day, the growth medium was removed, the wells rinsed with PBS, and the cells were incubated in assay medium MEM (Earle’s salts + L-glutamine) containing 10% heat-inactivated FBS, 1:100 NEAA, 1 mM sodium pyruvate, 500U/ml penicillin-streptomycin, and 1% gentamycin in the presence or absence of inhibitors for 24 h at 37°C and 5% CO2. After incubation cells were rinsed with PBS (calcium and 20 mM HEPES, pH 7.4, as per the manufacturer’s protocol), and incubated with the Live / Dead Cell Stain Kit containing 2 μM calcein AM and 4 μM ethidium homodimer (EthD-1) for 30 min at 37°C and 5% CO2. Fluorescence was then measured at 485/528 nm excitation/emission for calcein AM, and 530/645 nm for EthD-1. […]
Fig 2 Effect of HIV-1 TAT47-57 peptide on cell migration of fibrosarcoma HT1080 cells. Cells were incubated with either 10 μM of peptide or vehicle (water) for 24 h at 37°C and cell migration was measured as described in “Materials and Methods”. […]

Data set [4] deals with intracellular convertase activity in CHO-GRAPfurin cells. The data set can be described thus: SEAP activity assay (GRAPfurin Golgi reporter). In kind it is cell-based. Particulars: 1 μM, 20–24 h at 37 °C. Here is the method:
CHO-GRAPfurin cells expressing the hybrid reporter protein GRAPfurin, consisting of the secreted alkaline phosphatase (SEAP) protein fused to a Golgi retention signal and a specific furin recognition/cleavage site, […] The medium was collected, centrifuged, and heated for 30 min at 65°C to inactivate non-relevant phosphatases. To test SEAP activity, 2.5 μl of heated medium was mixed with 100 μl of assay buffer (100 mM Tris-HCl, pH 10, 100 mM NaCl, 5 mM MgCl2) and 100 μl of 36 μM 4-methylumbelliferyl phosphate (MUP), a phosphatase substrate, made in 50 mM Tris-HCl, pH 10. Fluorescence was measured every 20 seconds after excitation at 365 nm and recording emission at 460 nm at 37°C for 1 h. Since SEAP released from the tethered furin reporter is secreted, SEAP levels in the medium are proportional to the activity of Golgi furin [24, 25]. The experiments were independently repeated three times using triplicate wells per condition.
Fig 4 Cyclic polyarginine peptides inhibit cellular convertase activity. (a) CHO cells were incubated with each compound at 1 μM for 24 h at 37°C, and cell viability was monitored by incubation for 4 h with WST-1. […] Secreted alkaline phosphatase activity was measured in the medium. […]

T1 sequence (P09958 108-715 limits assumed): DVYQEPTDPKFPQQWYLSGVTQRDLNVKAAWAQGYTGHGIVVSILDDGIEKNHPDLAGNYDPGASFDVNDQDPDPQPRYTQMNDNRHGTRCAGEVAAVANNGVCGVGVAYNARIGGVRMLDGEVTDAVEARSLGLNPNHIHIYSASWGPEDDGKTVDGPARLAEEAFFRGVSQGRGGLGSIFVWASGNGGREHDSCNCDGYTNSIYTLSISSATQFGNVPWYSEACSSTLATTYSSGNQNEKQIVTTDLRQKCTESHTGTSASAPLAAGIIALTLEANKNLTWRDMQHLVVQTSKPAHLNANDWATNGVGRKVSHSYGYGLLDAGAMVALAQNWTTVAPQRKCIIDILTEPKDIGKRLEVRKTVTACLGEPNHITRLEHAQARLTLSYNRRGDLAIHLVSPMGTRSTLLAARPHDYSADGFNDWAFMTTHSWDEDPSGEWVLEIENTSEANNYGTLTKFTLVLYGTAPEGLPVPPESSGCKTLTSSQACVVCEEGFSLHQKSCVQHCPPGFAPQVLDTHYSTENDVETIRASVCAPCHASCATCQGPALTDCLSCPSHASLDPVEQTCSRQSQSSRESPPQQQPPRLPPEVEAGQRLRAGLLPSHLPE

On to `N=C(N)NCCC[C@@H]1NC(=O)[C@H](Cc2c[nH]c3ccccc23)NC(=O)[C@H](CS)NC(=O)[C@H](Cc2c[nH]c3ccccc23)NC(=O)[C@H](CCCNC(=N)N)NC(=O)[C@H](Cc2c[nH]c3ccccc23)NC(=O)[C@H](CCCNC(=N)N)NC(=O)[C@H](Cc2c[nH]c3ccccc23)NC(=O)[C@H](CCCNC(=N)N)NC(=O)[C@H](Cc2c[nH]c3ccccc23)NC1=O` [[W5R4C], [WRWRWRWRWC]], for which affinity on soluble human furin [1] was put at a Ki of 340 ± 20 nM.

As to hexa-D-arginine amide, on soluble human furin [2], the “inhibition constants against furin and other convertases” value is “nanomolar range”; the Ki is 106 ± 10 nM.

As for `N=C(N)NCCC[C@H](NC(=O)[C@H](CCCNC(=N)N)NC(=O)[C@H](CCCNC(=N)N)NC(=O)[C@H](CCC(N)=O)NC(=O)[C@H](CCCNC(=N)N)NC(=O)[C@H](CCCNC(=N)N)NC(=O)[C@H](CCCCN)NC(=O)[C@H](CCCCN)NC(=O)[C@H](CCCNC(=N)N)NC(=O)CNC(=O)[C@@H](N)Cc1ccc(O)cc1)C(=O)O` [HIV-1 TAT47-57, YGRKKRRQRRR], the furin inhibition entry on soluble human furin [1] is given as “nearly complete”. Further, on soluble human furin [1] (read-out: furin inhibition), the inhibition at 10 µM was around 60%. Moreover, the “toxicity to HT1080 cells” value in data set [3] is “non-toxic”.

With `CC(=O)N[C@@H](Cc1c[nH]c2ccccc12)C(=O)N[C@@H](Cc1c[nH]c2ccccc12)C(=O)N[C@@H](Cc1c[nH]c2ccccc12)C(=O)N[C@@H](Cc1c[nH]c2ccccc12)C(=O)NCCCC[C@@H]1NC(=O)[C@H](CCCNC(=N)N)NC(=O)[C@H](CCCNC(=N)N)NC(=O)[C@H](CCCNC(=N)N)NC(=O)[C@H](CCCNC(=N)N)NC(=O)[C@H](CCCNC(=N)N)NC1=O` [W4-[R5], N-acetyl-WWWW-[KRRRRR]], the Ki at soluble human furin [1] stood at 100 ± 140 nM. Also, the “inhibition of intracellular convertase activity (SEAP release)” value in data set [4] is listed as “most effective compound in cells”.

Regarding KETWWETWWTEWSQPKKKRKV [Chariot], the furin inhibition in the data set with soluble human furin [1] is listed as ~ 60%.

In the case of Nona-D-arginine amide, on soluble human furin [2], the “inhibition constants against furin and other convertases” value was “nanomolar range”; the Ki was 1.3 ± 2 nM.

A word on the Ki: it is the dissociation constant of the complex between target and ligand, obtained from inhibition or displacement. As a reminder, the inhibition is the percentage by which the read-out fell short of the control.
